Data: patent US20210045385A1, “PYRIDAZINONE-SUBSTITUTED KETOXIMES AS HERBICIDES” (FMC Corporation, priority 2018, published 2021)

Key:
Type in all cases: in vivo
[1] = system: Italian ryegrass (Lolium multiflorum); test: Test A preemergence, visual plant response rating; conditions: for Ryegrass, Italian plant response rating: 125 g ai/ha, preemergence, 0 to 100 scale, 0 no effect, 100 complete control; for Ryegrass, Italian plant response rating (0 to 100 scale): 500 g ai/ha Preemergence, approx. 10 days
Procedure, shortened: (§1)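 Ratings 0–100 (100 = complete control), visual, vs untreated controls at ~10 days. Application pre- or postemergence; solvent mixture with surfactant; loam/sand medium.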

kochia (Kochia scoparia) [2] = test: Test A preemergence, visual plant response rating; conditions: for Kochia plant response rating: 125 g ai/ha, preemergence, 0 to 100 scale, 0 no effect, 100 complete control; for Kochia plant response rating (0 to 100 scale): 500 g ai/ha Preemergence, approx. 10 days
Procedure, shortened: as §1

[3] = system: ragweed (common ragweed, Ambrosia elatior); test: Test A preemergence, visual plant response rating; conditions: for Ragweed plant response rating: 125 g ai/ha, preemergence, 0 to 100 scale, 0 no effect, 100 complete control; for Ragweed plant response rating (0 to 100 scale): 500 g ai/ha Preemergence, approx. 10 days
Procedure, shortened: as §1

[4] = system: foxtail, giant (giant foxtail, Setaria faberii); test: Test A preemergence, visual plant response rating; conditions: for Foxtail, Giant plant response rating: 125 g ai/ha, preemergence, 0 to 100 scale, 0 no effect, 100 complete control; for Foxtail, Giant plant response rating (0 to 100 scale): 500 g ai/ha Preemergence, approx. 10 days
Procedure, shortened: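 Compared with untreated controls, treated plants received a visual injury score on a 0–100 scale around 10 days after application. The compound, in a non-phytotoxic solvent with surfactant, was given as a preemergence soil spray or postemergence at the one- to two-leaf stage.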

[5] = system: pigweed (Amaranthus retroflexus); test: Test A preemergence, visual plant response rating; conditions: for Pigweed plant response rating: 125 g ai/ha, preemergence, 0 to 100 scale, 0 no effect, 100 complete control; for Pigweed plant response rating (0 to 100 scale): 500 g ai/ha Preemergence, approx. 10 days
Procedure, shortened: as §1

[6] = system: barnyardgrass (Echinochloa crus-galli); test: Test A preemergence, visual plant response rating; conditions: for Barnyardgrass plant response rating: 125 g ai/ha, preemergence, 0 to 100 scale, 0 no effect, 100 complete control; for Barnyardgrass plant response rating (0 to 100 scale): 500 g ai/ha Preemergence, approx. 10 days
Procedure, shortened: as §1

[7] = system: sedge, umbrella (small-flower umbrella sedge, Cyperus difformis); test: Test B flooded paddy test, visual plant response rating; conditions: 250 g ai/ha, Flood, applied to paddy water, 2-leaf stage, evaluated after 13 to 15 days
Procedure, shortened: (§2)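 Greenhouse paddy conditions applied: two-leaf plants, a 3 cm flood above the soil surface maintained throughout, and compound added to the water rather than the foliage. Plants were judged visually against controls at 13 to 15 days.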

rice (Oryza sativa) = test: as above; conditions: 250 g ai/ha, Flood, applied to paddy water, 2-leaf stage, evaluated after 13 to 15 days
Procedure, shortened: as §2

[8] = system: ducksalad (Heteranhera limosa); test: as above; conditions: 250 g ai/ha, Flood, applied to paddy water, 2-leaf stage, evaluated after 13 to 15 days
Procedure, shortened: as §2

[9] = system: barnyardgrass (Echinochloa crus-galli); test: as above; conditions: 250 g ai/ha, Flood, applied to paddy water, 2-leaf stage, evaluated after 13 to 15 days
Procedure, shortened: as §2

[10] = system: Italian ryegrass (Lolium multiflorum); test: Test A postemergence, visual plant response rating
Procedure, shortened: as §1

kochia (Kochia scoparia) [11] = test: Test A postemergence, visual plant response rating; conditions: for Kochia plant response rating (0 to 100 scale): 500 g ai/ha, postemergence, 0 is no effect, 100 is complete control; for Kochia plant response rating: Postemergence, 125 g ai/ha, 0 to 100 scale (0 no effect, 100 complete control)
Procedure, shortened: as §1

[12] = system: ragweed (common ragweed, Ambrosia elatior); test: Test A postemergence, visual plant response rating; conditions: for Ragweed plant response rating (0 to 100 scale): 500 g ai/ha, postemergence, 0 is no effect, 100 is complete control; for Ragweed plant response rating: Postemergence, 125 g ai/ha, 0 to 100 scale (0 no effect, 100 complete control)
Procedure, shortened: as §1

[13] = system: wheat (Triticum aestivum); test: Test A postemergence, visual plant response rating; conditions: Postemergence; for Wheat plant response rating: 500 g ai/ha, 0 to 100 scale (0 no effect, 100 complete control); for Wheat plant response rating (0 to 100 scale): approx. 10 days
Procedure, shortened: as §1

[14] = system: galium (catchweed bedstraw, Galium aparine); test: Test A postemergence, visual plant response rating; conditions: for Galium plant response rating (0 to 100 scale): 500 g ai/ha, postemergence, 0 is no effect, 100 is complete control; for Galium plant response rating: Postemergence, 125 g ai/ha, 0 to 100 scale (0 no effect, 100 complete control)
Procedure, shortened: as §1

[15] = system: foxtail, giant (giant foxtail, Setaria faberii); test: Test A postemergence, visual plant response rating; conditions: for Foxtail, Giant plant response rating (0 to 100 scale): 500 g ai/ha, postemergence, 0 is no effect, 100 is complete control; for Foxtail, Giant plant response rating: Postemergence, 125 g ai/ha, 0 to 100 scale (0 no effect, 100 complete control)
Procedure, shortened: as §1

[16] = system: blackgrass (Alopecurus myosuroides); test: Test A postemergence, visual plant response rating; conditions: for Blackgrass plant response rating (0 to 100 scale): 500 g ai/ha, postemergence, 0 is no effect, 100 is complete control; for Blackgrass plant response rating: Postemergence, 125 g ai/ha, 0 to 100 scale (0 no effect, 100 complete control)
Procedure, shortened: as §1

corn (Zea mays) = test: Test A postemergence, visual plant response rating; conditions: for Corn plant response rating (0 to 100 scale): 500 g ai/ha, postemergence, 0 is no effect, 100 is complete control; for Corn plant response rating: Postemergence, 125 g ai/ha, 0 to 100 scale (0 no effect, 100 complete control)
Procedure, shortened: as §1

[17] = system: pigweed (Amaranthus retroflexus); test: Test A postemergence, visual plant response rating; conditions: for Pigweed plant response rating (0 to 100 scale): 500 g ai/ha, postemergence, 0 is no effect, 100 is complete control; for Pigweed plant response rating: Postemergence, 125 g ai/ha, 0 to 100 scale (0 no effect, 100 complete control)
Procedure, shortened: as §1

[18] = system: barnyardgrass (Echinochloa crus-galli); test: Test A postemergence, visual plant response rating; conditions: for Barnyardgrass plant response rating (0 to 100 scale): 500 g ai/ha, postemergence, 0 is no effect, 100 is complete control; for Barnyardgrass plant response rating: Postemergence, 125 g ai/ha, 0 to 100 scale (0 no effect, 100 complete control)
Procedure, shortened: as §1

[19] = 500 g ai/ha, postemergence, 0 is no effect, 100 is complete control
[20] = Postemergence, rate not given, approx. 10 days

Compound	Ryegrass, Italian plant response rating [1]	Ryegrass, Italian plant response rating (0 to 100 scale) [1]	Kochia plant response rating (kochia (Kochia scoparia) [2])	Kochia plant response rating (0 to 100 scale) (kochia (Kochia scoparia) [2])	Ragweed plant response rating [3]	Ragweed plant response rating (0 to 100 scale) [3]	Foxtail, Giant plant response rating [4]	Foxtail, Giant plant response rating (0 to 100 scale) [4]	Pigweed plant response rating [5]	Pigweed plant response rating (0 to 100 scale) [5]	Barnyardgrass plant response rating [6]	Barnyardgrass plant response rating (0 to 100 scale) [6]	Plant response rating, Sedge, Umbrella (0 to 100 scale, 0 is no effect, 100 is complete control) [7]	Plant response rating, Rice (0 to 100 scale, 0 is no effect, 100 is complete control) (rice (Oryza sativa))	Plant response rating, Ducksalad (0 to 100 scale, 0 is no effect, 100 is complete control) [8]	Plant response rating, Barnyardgrass (0 to 100 scale, 0 is no effect, 100 is complete control) [9]	Ryegrass, Italian plant response rating (0 to 100 scale) [10, 19]	Ryegrass, Italian plant response rating (0 to 100 scale) [10, 20]	Kochia plant response rating (0 to 100 scale) (kochia (Kochia scoparia) [11])	Kochia plant response rating (kochia (Kochia scoparia) [11])	further results
CO/N=C(/c1c(O)c(Cl)nn(C)c1=O)c1cccc2ccccc12 [Compound 145, 6-chloro-5-hydroxy-4-[(E)-(methoxyimino)-1-naphthalenylmethyl]-2-methyl-3(2H)-pyridazinone]	0	10	70	90	100	100	50	80	50	90	60	80	0	0	0	0	10	20	90	80	Ragweed plant response rating (0 to 100 scale) [12]: 100; Ragweed plant response rating [12]: 100; Wheat plant response rating [13]: 0; Wheat plant response rating (0 to 100 scale) [13]: 0; Galium plant response rating (0 to 100 scale) [14]: 100; Galium plant response rating [14]: 90; Foxtail, Giant plant response rating (0 to 100 scale) [15]: 60; Foxtail, Giant plant response rating [15]: 30; Blackgrass plant response rating (0 to 100 scale) [16]: 70; Blackgrass plant response rating [16]: 30; Corn plant response rating (0 to 100 scale) (corn (Zea mays)): 0; Corn plant response rating (corn (Zea mays)): 0; Pigweed plant response rating (0 to 100 scale) [17]: 80; Pigweed plant response rating [17]: 30; Barnyardgrass plant response rating (0 to 100 scale) [18]: 60; Barnyardgrass plant response rating [18]: 30
CCO/N=C(\c1c(O)c(Cl)nn(C)c1=O)c1cccc2ccccc12 [Compound 146]	0	0	30	100	90	100	70	80	80	100	60	60	0	0	0	0	0	0	80	60	Ragweed plant response rating (0 to 100 scale) [12]: 100; Ragweed plant response rating [12]: 90; Wheat plant response rating [13]: 0; Wheat plant response rating (0 to 100 scale) [13]: 0; Galium plant response rating (0 to 100 scale) [14]: 90; Galium plant response rating [14]: 70; Foxtail, Giant plant response rating (0 to 100 scale) [15]: 70; Foxtail, Giant plant response rating [15]: 60; Blackgrass plant response rating (0 to 100 scale) [16]: 60; Blackgrass plant response rating [16]: 30; Corn plant response rating (0 to 100 scale) (corn (Zea mays)): 20; Corn plant response rating (corn (Zea mays)): 30; Pigweed plant response rating (0 to 100 scale) [17]: 90; Pigweed plant response rating [17]: 70; Barnyardgrass plant response rating (0 to 100 scale) [18]: 60; Barnyardgrass plant response rating [18]: 30
CCO/N=C(/c1c(O)c(Cl)nn(C)c1=O)c1cccc2ccccc12 [Compound 147]	0	0	100	100	90	100	50	80	60	100	50	60	0	0	0	0	0	0	90	40	Ragweed plant response rating (0 to 100 scale) [12]: 90; Ragweed plant response rating [12]: 100; Wheat plant response rating [13]: 0; Wheat plant response rating (0 to 100 scale) [13]: 0; Galium plant response rating (0 to 100 scale) [14]: 90; Galium plant response rating [14]: 90; Foxtail, Giant plant response rating (0 to 100 scale) [15]: 70; Foxtail, Giant plant response rating [15]: 30; Blackgrass plant response rating (0 to 100 scale) [16]: 60; Blackgrass plant response rating [16]: 30; Corn plant response rating (0 to 100 scale) (corn (Zea mays)): 30; Corn plant response rating (corn (Zea mays)): 0; Pigweed plant response rating (0 to 100 scale) [17]: 90; Pigweed plant response rating [17]: 40; Barnyardgrass plant response rating (0 to 100 scale) [18]: 60; Barnyardgrass plant response rating [18]: 20
